According to patent publication US20100273848A1, “IMINOPYRROLIDONE THIOL AMINO ACID CONJUGATES, PHARMACEUTICAL COMPOSITIONS AND METHODS FOR THE TREATMENT OF CANCER” (THE ARIZONA BD OR REG ON BEHALF OF THE UNIV OF AZ, priority 2007, published 2010):
Read-outs that look alike come from different tables or passages of the source.

Legend:
[1] = test system: Raji lymphoma cells; experiment: Cytotoxicity study, MTT assay, Raji cells; format: cell-based, human; settings: 96 hours, read-out: IC50 at 72* or 96 hours
Method: (§1) Example 1 illustrates a method of determining the antineoplastic activity of iminopyrrolidone thiol amino acid conjugates in vitro. Ninety-six (96) well plates (BD Biosciences, San Jose, Calif.) were seeded with approximately 5000 cells in 160 μl of growth medium per well in the last eleven columns of each plate. The first column of each plate was filled with 160 μl of growth medium containing no cells to be used as a blank. Following a 24-hour incubation period, the cells in the last ten columns were drugged (leaving row one as a blank and row two as a control with uninhibited cell growth) with 40 μl of either simexonyl homocysteine or imexon in growth medium. The quantity of drug added to the wells of each respective column was constant, but varied from column to column such that the resulting concentration in the total volume of each individual well ranged from 1 μM to 1000 μM. […]

[2] = test system: DB lymphoma cells; experiment: Cytotoxicity study, MTT assay, DB cells; format: cell-based, human; settings: 96 hours, read-out: IC50 at 72* or 96 hours
Method: as §1

[3] = test system: MiaPaCa human pancreatic cancer cells; experiment: Cytotoxicity study, SRB assay, MiaPaCa cells; format: cell-based; settings: 96 hours, read-out: IC50 at 72* or 96 hours
Method: as §1

[4] = test system: PC-3 human prostate cancer cells; experiment: Cytotoxicity study, SRB assay, PC-3 cells; format: cell-based; settings: PC-3 - Prostate, 72 hours (*), read-out: IC50 at 72* or 96 hours
Method: as §1

[5] = test system: DU-145 human prostate cancer cells; experiment: Cytotoxicity study, SRB assay, DU-145 cells; format: cell-based; settings: DU-145 - Prostate, 96 hours, read-out: IC50 at 72* or 96 hours
Method: as §1

[6] = test system: 8226/s human myeloma cells (chemotherapy sensitive); experiment: Cytotoxicity study, MTT assay, 8226/s cells; format: cell-based; settings: 8226/s - Myeloma, 96 hours, read-out: IC50 at 72* or 96 hours
Method: as §1

[7] = test system: A375 human malignant melanoma cells; experiment: Cytotoxicity study, SRB assay, A375 cells; format: cell-based; settings: 96 hours, read-out: IC50 at 72* or 96 hours
Method: as §1

[8] = test system: 8226/I10 human myeloma cells (chemotherapy resistant); experiment: Cytotoxicity study, MTT assay, 8226/I10 cells; format: cell-based; settings: 8226/I10 - Myeloma, 96 hours, read-out: IC50 at 72* or 96 hours
Method: as §1

[9] = test system: DB lymphoma cells; settings: 45, 90 or 180 μM, 48 hours after drug exposure, FIG. 6
Method: DB and Raji lymphoma cells were kindly provided by Dr. Alan List (University of Arizona, Tucson, Ariz.). All cell lines were cultured in RPMI 1640 media (Mediatech, Herndon, Va.) enhanced with 5% (v/v) (10% for DB and Raji cells) heat-inactivated bovine calf serum (Hyclone Laboratories, Logan, Utah), 2 mM L-glutamine, 100 U/ml penicillin, and 100 μg/ml streptomycin (each from Invitrogen, Carlsbad, Calif.) in a humidified incubator containing 5% CO2 at 37° C.
DB lymphoma cells were cultured in ninety-six (96) well plates (BD Biosciences) under conditions as described hereinbefore. […] Forty eight hours after drug exposure, the percentage of necrotic, viable, proapoptotic, and apoptotic cells in each respective well was measured using an annexin V—FITC (fluorescein isothiocyanate labeled annexin V) apoptosis detection kit (BioVision Labs) according to the manufacturer's instructions in conjunction with a Bectin Dickenson FACScan (San Jose, Calif.) fluorescence activated cell sorter using CellQuest Pro software (BD Biosciences). […]
A threshold intensity for the fluorescence signal permits one to distinguish between proapoptotic and apoptotic cells in the flow cytometric analysis, but both are indicative of an induction of apoptosis by the drug.

Compound | IC50 ([1]; Homo sapiens) [µM] | IC50 ([2]; Homo sapiens) [µM] | IC50 ([3]; Homo sapiens, MIA PaCa-2, MiaPaCa - Pancreas) [µM] | IC50 [1] [µM] | IC50 [4] [µM] | IC50 [5] [µM] | IC50 [2] [µM] | IC50 [6] [µM] | IC50 ([3]; MiaPaCa - Pancreas) [µM] | IC50 [7] [µM] | IC50 [8] [µM] | induction of apoptosis (percentage of proapoptotic and apoptotic cells) [9]
NC1=NC(=O)N2CC12 (racemic) [imexon, (5RS)-4-amino-1,3-diazabicyclo[3.1.0]hex-3-en-2-one, reference compound] | 50 | 54 | 190 |  |  |  |  |  |  |  |  | 
simexonyl homocysteine |  |  |  | 22 | 49 | 143 | 23 | 13.6 | 46 | 15.4 | 95 | induced apoptosis
